Test results as given in US20250314656A1, “GENETICALLY ENCODED FLUORESCENT INDICATOR OF D-2-HYDROXYGLUTARATE” (priority 2024, published 2025).
Like-named read-outs stand apart in the source and are kept apart here.

Assays:
[1] = target: D2HGlo (Variant 2, SEQ ID NO: 4; Variant 2 truncated DhdR SEQ ID NO: 2, two residues removed from each terminus, between ECFP and cpVenus173) (Achromobacter denitrificans, UniProt A0ABZ3FXY3); type: binding, Achromobacter denitrificans NBRC 15125; details: concentrations up to 100 μM
[2] = system: 2-HG; details: newly diagnosed and advanced cancer; cited from earlier work
[3] = system: IDH1 wildtype U87MG cells; assay: Live-cell D2HGlo FRET ratio after inhibitor treatment, wildtype cells; type: cell-based, human
Procedure: (A) Left: Representative image of a wild-type IDH1 U87MG cell expressing Cyto-D2HGlo. Scale bar is 25 μm. […] (B) Left: Representative image of a wild-type IDH1 U87 clel cell expressing Nuc-D2HGlo. Scale bar is 25 μm. […] (C) Left: Representative image of a wild-type IDH1 U87 cell expressing Mito-D2HGlo. Scale bar is 25 μm.
(§1) Statistical analysis was performed using a one-way ANOVA test with post hoc Tukey (**, P<0.01; *, P<0.05). […] Statistical analysis was performed using a one-way ANOVA test with post hoc Tukey (*, P<0.05);
Fluorescence Live-Cell Imaging.

[4] = system: IDH1 wildtype U87MG cells; assay: D-2-HG concentration in cell culture supernatant measured with purified D2HGlo, wildtype cells; type: cell-based, human
Procedure: as §1
Both cell lines were left untreated or exposed to AG-120 (3 μM) for 48 hours prior to measurements. (B) Titration of purified D2HGlo with increasing concentrations of D-2-HG (100 nM-1 mM) spiked into human serum. […] (D) Titration of purified D2HGlo with increasing concentrations of D-2-HG (100 nM-1 mM) spiked into human urine. […] (F) Titration of purified D2HGlo with increasing concentrations of D-2-HG (100 nM-1 mM) spiked into aCSF.
Cell Culture Supernatant: U87MG IDH1 wildtype and mutant cells were plated at 60% confluence in 6-well plates. For some experiments, AG-120 in DMSO (3 μM), Glutaminase inhibitor (1 μM), or 2-DG (10 mM) was added to the cell culture media before plating the cells. For all conditions and cell lines, the cell culture supernatant was collected after 48 hours of incubation at 37° C. 10 μL of cell culture media was mixed with 90 μL of purified D2HGlo (5 μM), and the FRET ratios were collected. D-2-HG levels were estimated by using the titration curve as a calibration curve and converting the FRET ratios of unknowns into concentrations. Biological Fluids: Urine and serum were collected from three healthy donors while aCSF was purchased (Tocris Bioscience).

[5] = system: IDH1 wildtype U87MG cells; assay: FRET imaging of D2HGlo in IDH1 wildtype U87MG cells; type: cell-based, human; details: Compound 968 1 μM, approx. 5.5 minutes
Procedure: . […] . This evidence further supports the specificity of D2HGlo to endogenous D-2-HG in situ. […] . […] .
The inventors utilized the glutaminase C inhibitor Compound 968 and 2-Deoxy-D-glucose (2-DG), an inhibitor of glycolysis. […] . Cell Culture and Transfection. […] Cells were transfected 24 hours after plating with 1.0 μg D2HGlo constructs and 3.0 μL Trans-IT®-LT1 transfection reagent (Mirus Bio, Madison, WI). The cells were allowed to express for 48 hours before imaging.
Fluorescence Live-Cell Imaging. […] The standard imaging parametersD2HGlo sensors were: 457 excited at 458 nm laser line and 482 nm and 531 nm and the fluorescent signal was collected using a BA 480-495 emission filter (ECFP) and a BA 535-565 emission filter (FRET). The FRET ratio was determined by dividing the FRET signal by the ECFP signal. […] . The maximum FRET ratio was determined for the entire time-course and normalized to the baseline FRET ratio. […] A region of interest was drawn on each cell, and the average FRET ratio within each ROI was determined. In some sets of experiments, cells were treated with AG-120 (3 μM) for 48 hours prior to FRET ratio collection. Alternatively, glutaminase inhibitor (1 μM), or 2-DG (10 mM) were added to imaging wells after collecting baseline FRET values for 30 seconds.

[6] = several freeze-thaw cycles or exposure to excess heat; cited from earlier work

## O=C(O)CC(O)C(=O)O (racemic) [Malate, sodium hydrogen DL-malate]
[1]
  response of D2HGlo (FRET ratio) to metabolite: does not respond

## N#Cc1ccnc(N2C(=O)CC[C@H]2C(=O)N(c2cncc(F)c2)[C@H](C(=O)NC2CC(F)(F)C2)c2ccccc2Cl)c1 [AG-120]
[2]
  effect on 2-HG levels in patients: reduction of 2-HG to levels similar to those seen in healthy populations
[3]; AG-120 3 μM for 48 hours
  effect on D-2-HG levels: had no effect on D-2-HG levels
[4]; AG-120 3 μM for 48 hours
  D-2-HG concentration in supernatant: 2.79 ± 0.41 µM

## O=C(O)CC(O)(CC(=O)O)C(=O)O [Citrate]
[1]
  response of D2HGlo (FRET ratio) to metabolite: does not respond

## CN(C)c1ccc(C2Nc3ccc4ccccc4c3C3=C2C(=O)CC(C)(C)C3)cc1Br (stereo not shown) [Compound 968]
[5]
  acute change of FRET ratio (Cyto-D2HGlo): did not elicit any changes in FRET ratio
[4]; Compound 968 1 μM for 48 hours
  D-2-HG accumulation in supernatant: nor did it affect D-2-HG accumulation in cell culture supernatants

## N[C@@H](CCC(=O)O)C(=O)O [Glutamate, L-glutamic acid]
[1]
  response of D2HGlo (FRET ratio) to metabolite: does not respond
[1]; listed as glutamate
  response of D2HGlo (FRET ratio) to metabolite: did not respond

## C[C@H](O)C(=O)O [Lactate, sodium L-lactate]
[1]
  response of D2HGlo (FRET ratio) to metabolite: does not respond
[1]; listed as lactate
  response of D2HGlo (FRET ratio) to metabolite: did not respond

## O=C(O)CC(=O)C(=O)O [Oxaloacetate, Oxaloacetic acid]
[1]
  response of D2HGlo (FRET ratio) to metabolite: does not respond

## O=C(O)CCC(=O)O [Succinate, succinic acid]
[1]
  response of D2HGlo (FRET ratio) to metabolite: does not respond

## O=CC[C@@H](O)[C@H](O)[C@H](O)CO [Variant 2-DG, 2-Deoxy-D-glucose]
[3]; 2-DG 10 mM, approximately 5.5 minutes
  acute change of Cyto-D2HGlo FRET ratio: unaffected

## O=C(O)CC[C@@H](O)C(=O)O [Variant D-2-HG, D-2-hydroxyglutarate]
[6]
  stability in biological fluids: remains stable

## O=C(O)CCC(=O)C(=O)O [α-ketoglutarate, α-ketoglutaric acid]
[1]
  response of D2HGlo (FRET ratio) to metabolite: does not respond
